# Measured values from US9012500B2, “PKC-ε activator” (Nishizaki Bioinformation Research Institute, priority 2010, dated 2015).
# Assays:
# [1] = system: senescence-accelerated mouse (SAMP8); test: Water maze test in senescence-accelerated mouse (SAMP8); assay type: in vivo; details: 8 days
# Protocol: Using senescence-accelerated mouse (accelerated-senescence-prone mice 8: SAMP8) and normal senescence mouse (accelerated-senescence-resistant mice 1: SAMR1) as a control thereof, a water maze test was performed. Male SAMP8 and SAMR1 (22- to 25-week-old) were available from Takeda Pharmaceutical Company Limited (Osaka, Japan). The mice were individually raised in a cage at 23±1° C., 12 hr light/dark cycle (lighted at 7:00 am), and allowed to freely ingest feed (solid feed) and water.
# Racemate DCP-LA and 4 optical isomers DCP-LA (α,α-, α,β-, β,α-, β,β-DCP-LA), each dissolved in 0.1 ml polyethylene glycol (PEG), or 0.1 ml PEG were orally administered once a day from the day when the water maze test was started. For each group, the water maze test was performed twice a day for 8 days, and the time required to reach a platform (acquisition latency) was measured.
# For the water maze test, a circular plastic water tank (diameter 90 cm, depth 36 cm) was used. The inside of the water tank was completely painted in black, and dark water with India ink was filled up to 20 cm from the bottom (22° C.). A platform (diameter 11 cm) painted in black was placed in water such that it was 1 cm below the water surface. The water tank was placed in a test room, and several marks seen by the mice from the water tank were put thereon. During the test, the position of the marks was not changed. A platform was placed a predetermined position from the equal distance from the center and the end of the water tank, namely, center of one quadrant. At one of the randomly selected 5 points, the mouse was released facing the wall of the water tank, and the time necessary for evacuating on the platform (acquisition latency) was measured. When smoothly evacuated, the mouse was left on the platform for 10 seconds. From the day of water maze test and during the test, polyethylene glycol (PEG) alone or racemate DCP-LA (1 mg/kg), α,α-DCP-LA (0.25 mg/kg), α,β-DCP-LA (0.25 mg/kg), β,α-DCP-LA (0.25 mg/kg), or β,β-DCP-LA (0.25 mg/kg), each dissolved in PEG, was orally administered every day. The water maze test was performed twice a day, and the second test was started at 2 min from the first test. The test was continuously performed for 8 days, and the average value (±SEM) of acquisition latency of continuous 2 days until the mouse reached the platform was calculated (each n=5).
# [2] = system: glutamic acid release from the hippocampus; test: Glutamic acid release from rat hippocampus sections (HPLC); assay type: cell-based
# [3] = system: serotonin release from the hypothalamus; test: Serotonin release from rat hypothalamus sections (HPLC); assay type: cell-based
# [4] = system: dopamine release from the striatum; test: Dopamine release from rat striatum sections (HPLC); assay type: cell-based
# nerve cell = details: patent document 2; cited from earlier work
# [5] = molecular target: α7 nicotinic acetylcholine receptor (Homo sapiens, UniProt P36544); details: α7 nicotinic acetylcholine receptor at the glutamatergic presynaptic terminal as target, non-patent document 5; cited from earlier work
# [6] = system: senescence-accelerated mouse; details: non-patent document 2; cited from earlier work
# [7] = system: amyloid β peptide- or scopolamine-treated rat; details: non-patent document 4; cited from earlier work
# PKC-ε = molecular target: T1, PKC-ε (Homo sapiens, UniProt Q02156); details: non-patent document 1; cited from earlier work
# T1 sequence (Q02156 1-737): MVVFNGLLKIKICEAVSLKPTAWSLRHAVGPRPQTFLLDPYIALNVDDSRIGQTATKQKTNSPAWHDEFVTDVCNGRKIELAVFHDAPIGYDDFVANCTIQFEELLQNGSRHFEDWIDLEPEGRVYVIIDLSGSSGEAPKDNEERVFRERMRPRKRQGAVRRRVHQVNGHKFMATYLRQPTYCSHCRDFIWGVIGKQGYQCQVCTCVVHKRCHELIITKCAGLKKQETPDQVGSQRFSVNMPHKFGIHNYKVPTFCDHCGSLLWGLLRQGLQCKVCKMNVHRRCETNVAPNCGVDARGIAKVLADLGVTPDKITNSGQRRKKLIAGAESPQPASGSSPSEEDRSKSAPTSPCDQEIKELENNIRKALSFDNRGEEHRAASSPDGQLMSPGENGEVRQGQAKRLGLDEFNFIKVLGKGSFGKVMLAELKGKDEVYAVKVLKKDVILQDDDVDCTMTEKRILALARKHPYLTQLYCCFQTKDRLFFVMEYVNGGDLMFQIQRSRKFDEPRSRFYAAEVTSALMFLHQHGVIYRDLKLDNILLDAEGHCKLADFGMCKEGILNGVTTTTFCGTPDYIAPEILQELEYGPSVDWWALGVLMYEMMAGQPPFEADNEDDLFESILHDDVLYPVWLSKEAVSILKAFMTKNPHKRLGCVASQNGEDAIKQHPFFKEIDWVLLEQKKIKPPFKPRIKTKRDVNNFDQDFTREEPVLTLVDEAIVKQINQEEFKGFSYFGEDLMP
# hippocampus nerve cells = details: non-patent document 3; cited from earlier work
# [8] = SAMP8, 0.25 mg/kg orally once a day
# Chain of α7 nicotinic acetylcholine receptor (P36544 23-502): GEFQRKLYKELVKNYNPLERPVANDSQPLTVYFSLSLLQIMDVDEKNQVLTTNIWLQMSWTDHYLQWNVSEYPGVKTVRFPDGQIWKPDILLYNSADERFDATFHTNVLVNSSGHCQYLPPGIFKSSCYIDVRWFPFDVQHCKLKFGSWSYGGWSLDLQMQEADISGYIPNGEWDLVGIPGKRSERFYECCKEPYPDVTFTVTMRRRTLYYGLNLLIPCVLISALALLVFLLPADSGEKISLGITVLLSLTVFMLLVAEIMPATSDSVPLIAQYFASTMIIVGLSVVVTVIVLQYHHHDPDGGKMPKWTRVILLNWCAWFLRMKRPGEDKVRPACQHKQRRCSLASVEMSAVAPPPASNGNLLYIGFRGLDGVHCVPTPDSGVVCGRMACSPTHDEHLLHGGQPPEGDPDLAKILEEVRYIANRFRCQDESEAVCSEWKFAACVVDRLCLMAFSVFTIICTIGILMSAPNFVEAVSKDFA
smiles,measurement,setting,value
"CCCCC[C@H]1C[C@H]1C[C@H]1C[C@@H]1CCCCCCCC(=O)O [β,α-DCP-LA, 8-[(1S,2R)-2-{(1S,2S)-2-pentylcyclopropylmethyl}-cyclopropyl]octanoic acid]",acquisition latency as compared to the PEG administration group,[1]; [8],shortened acquisition latency
"CCCCC[C@@H]1C[C@@H]1C[C@H]1C[C@@H]1CCCCCCCC(=O)O [α,α-DCP-LA, 8-[(1S,2R)-2-{(1R,2R)-2-pentylcyclopropylmethyl}-cyclopropyl]octanoic acid]",acquisition latency as compared to the PEG administration group,[1]; [8],shortened acquisition latency
same,acquisition latency as compared to the racemate DCP-LA (1 mg/kg) administration group,[1]; [8],significantly shortened acquisition latency
"CN1CCCC1c1cccnc1 (centres unmarked) [nicotine, reference compound]","glutamic acid release, substance alone vs non-treated group",[2],did not show a remarkable difference
same,"serotonin release, substance alone vs non-treated group",[3],did not show a remarkable difference
same,"dopamine release, substance alone vs non-treated group",[4],did not show a remarkable difference
"CCCCCC1CC1CC1CC1CCCCCCCC(=O)O (racemic) [racemate DCP-LA, 8-(2-(2-pentyl-cyclopropylmethyl)-cyclopropyl)-octanoic acid]",nerve cell death induced by oxidative stress,nerve cell,suppress nerve cell death
same,hippocampus synaptic transmission,[5],promotes hippocampus synaptic transmission
same,cognitive dysfunction of senescence-accelerated mouse,[6],improves cognitive dysfunction
same,cognitive dysfunction of amyloid β peptide- or scopolamine-treated rat,[7],improves cognitive dysfunction
same,acquisition latency as compared to the PEG administration group,"[1]; SAMP8, 1 mg/kg orally once a day",shortened acquisition latency
same,PKC-ε activation,PKC-ε,selectively and directly activates PKC-ε
same,release of γ aminobutyric acid from hippocampus nerve cells,hippocampus nerve cells,increases release of γ aminobutyric acid
"CCCCC[C@H]1C[C@H]1C[C@@H]1C[C@H]1CCCCCCCC(=O)O [β,β-DCP-LA, 8-[(1R,2S)-2-{(1S,2S)-2-pentylcyclopropylmethyl}-cyclopropyl]octanoic acid]",acquisition latency as compared to the PEG administration group,[1]; [8],shortened acquisition latency
"CN(C)CCCn1cc(C2=C(c3c[nH]c4ccccc34)C(=O)NC2=O)c2ccccc21 [GF109203X, reference compound]","effect of inhibitor on α,β-DCP-LA enhancement of nicotine-caused glutamic acid release","[2]; inhibitor 100 nM, FIG. 9",inhibited
same,"effect of inhibitor on α,β-DCP-LA enhancement of nicotine-caused serotonin release","[3]; inhibitor 100 nM, FIG. 15",inhibited
same,"effect of inhibitor on α,β-DCP-LA enhancement of nicotine-caused dopamine release","[4]; inhibitor 100 nM, FIG. 12",inhibited
